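Where inhibition never reached the appropriate level, the endpoint shown equals the highest concentration tested. Otherwise, values were interpolated linearly from a five-concentration, 48-hour dose response in 96-well plates. GI50 is the concentration that inhibits growth by half.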 Activity calls are given as the source filed them. No stated cut-off is given here; in the data, active = GI50 up to about 1.1 µM and inactive = higher.
What was measured:
Assay in all cases: DTP human tumour cell line panel, 48 h
OVCAR-4 = test system: OVCAR-4
KM-20L2 = test system: KM-20L2
SNB-78 = test system: SNB-78
UO-31 = test system: UO-31
CAKI-1 = test system: CAKI-1
Malme-3M = test system: Malme-3M
CCRF-CEM = test system: CCRF-CEM
UACC-257 = test system: UACC-257
DLD-1 = test system: DLD-1
SN12C = test system: SN12C
COLO 205 = test system: COLO 205
OVCAR-8 = test system: OVCAR-8
SK-MEL-28 = test system: SK-MEL-28
LXFL 529 = test system: LXFL 529
SF-295 = test system: SF-295
786-0 = test system: 786-0
A498 = test system: A498
RPMI-8226 = test system: RPMI-8226
NCI-H460 = test system: NCI-H460
U-251 = test system: U-251
LOX IMVI = test system: LOX IMVI
SK-OV-3 = test system: SK-OV-3
HCT-15 = test system: HCT-15
HOP-62 = test system: HOP-62
NCI-H226 = test system: NCI-H226
SW-620 = test system: SW-620
SK-MEL-2 = test system: SK-MEL-2
K562 = test system: K562
EKVX = test system: EKVX
M14 = test system: M14
KM12 = test system: KM12
NCI-H23 = test system: NCI-H23
SF-268 = test system: SF-268
HL-60 = test system: HL-60
NCI-H522 = test system: NCI-H522
MOLT-4 = test system: MOLT-4
RXF 393 = test system: RXF 393
RXF 631 = test system: RXF 631
SK-MEL-5 = test system: SK-MEL-5
HCC 2998 = test system: HCC 2998
A549 = test system: A549
XF498 = test system: XF498
SF-539 = test system: SF-539
OVCAR-5 = test system: OVCAR-5
ACHN = test system: ACHN
TK-10 = test system: TK-10
DMS-114 = test system: DMS-114
HT-29 = test system: HT-29
IGROV-1 = test system: IGROV-1
HOP-92 = test system: HOP-92
UACC-62 = test system: UACC-62
OVCAR-3 = test system: OVCAR-3
SNB-75 = test system: SNB-75
DMS-273 = test system: DMS-273
M19-MEL = test system: M19-MEL
SNB-19 = test system: SNB-19
SR = test system: SR
HCT-116 = test system: HCT-116

O=C1O[C@@H](c2ccccc2)C[C@@H]1CN1CCOCC1
GI50 (OVCAR-4): > 100 µM (inactive) | GI50 (KM-20L2): > 100 µM (inactive) | GI50 (SNB-78): > 100 µM (inactive) | GI50 (UO-31): > 100 µM (inactive) | GI50 (CAKI-1): 65.5 µM (inactive) | GI50 (Malme-3M): > 100 µM (inactive) | GI50 (CCRF-CEM): > 100 µM (inactive) | GI50 (UACC-257): > 100 µM (inactive) | GI50 (DLD-1): > 100 µM (inactive) | GI50 (SN12C): > 100 µM (inactive) | GI50 (COLO 205): > 100 µM (inactive) | GI50 (OVCAR-8): > 100 µM (inactive) | GI50 (SK-MEL-28): > 100 µM (inactive) | GI50 (LXFL 529): > 100 µM (inactive) | GI50 (SF-295): > 100 µM (inactive) | GI50 (786-0): > 100 µM (inactive) | GI50 (A498): > 100 µM (inactive) | GI50 (RPMI-8226): 59.4 µM (inactive) | GI50 (NCI-H460): > 100 µM (inactive) | GI50 (U-251): > 100 µM (inactive) | GI50 (LOX IMVI): > 100 µM (inactive) | GI50 (SK-OV-3): > 100 µM (inactive) | GI50 (HCT-15): > 100 µM | GI50 (HOP-62): > 100 µM (inactive) | GI50 (NCI-H226): > 100 µM (inactive) | GI50 (SW-620): > 100 µM (inactive) | GI50 (SK-MEL-2): > 100 µM (inactive) | GI50 (K562): > 100 µM (inactive) | GI50 (EKVX): > 100 µM (inactive) | GI50 (M14): > 100 µM (inactive) | GI50 (KM12): > 100 µM (inactive) | GI50 (NCI-H23): 26.3 µM (inactive) | GI50 (SF-268): > 100 µM (inactive) | GI50 (HL-60): > 100 µM (inactive) | GI50 (NCI-H522): > 100 µM (inactive) | GI50 (MOLT-4): > 100 µM (inactive) | GI50 (RXF 393): > 100 µM (inactive) | GI50 (RXF 631): > 100 µM (inactive) | GI50 (SK-MEL-5): > 100 µM (inactive) | GI50 (HCC 2998): > 100 µM (inactive) | GI50 (A549): > 100 µM (inactive) | GI50 (XF498): > 100 µM (inactive) | GI50 (SF-539): > 100 µM (inactive) | GI50 (OVCAR-5): > 100 µM (inactive) | GI50 (ACHN): > 100 µM (inactive) | GI50 (TK-10): > 100 µM (inactive) | GI50 (DMS-114): > 100 µM (inactive) | GI50 (HT-29): > 100 µM (inactive) | GI50 (IGROV-1): > 100 µM (inactive) | GI50 (HOP-92): > 100 µM (inactive) | GI50 (UACC-62): > 100 µM (inactive) | GI50 (OVCAR-3): > 100 µM (inactive) | GI50 (SNB-75): > 100 µM (inactive)

Cc1cc(OC(=O)c2c(C)cc(OC(=O)c3c(C)cc(O)cc3O)cc2O)cc(O)c1C(=O)O [GYROPHORIC ACID]
GI50 (OVCAR-4): > 100 µM (inactive) | GI50 (KM-20L2): > 100 µM (inactive) | GI50 (SNB-78): > 100 µM (inactive) | GI50 (UO-31): 76.4 µM (inactive) | GI50 (CAKI-1): > 100 µM (inactive) | GI50 (Malme-3M): > 100 µM (inactive) | GI50 (CCRF-CEM): > 100 µM (inactive) | GI50 (UACC-257): > 100 µM (inactive) | GI50 (DMS-273): > 100 µM (inactive) | GI50 (DLD-1): > 100 µM (inactive) | GI50 (SN12C): > 100 µM (inactive) | GI50 (COLO 205): > 100 µM (inactive) | GI50 (OVCAR-8): > 100 µM (inactive) | GI50 (SK-MEL-28): > 100 µM (inactive) | GI50 (LXFL 529): > 100 µM (inactive) | GI50 (SF-295): > 100 µM (inactive) | GI50 (786-0): > 100 µM (inactive) | GI50 (A498): > 100 µM (inactive) | GI50 (M19-MEL): > 100 µM (inactive) | GI50 (RPMI-8226): > 100 µM (inactive) | GI50 (NCI-H460): > 100 µM (inactive) | GI50 (U-251): > 100 µM (inactive) | GI50 (LOX IMVI): > 100 µM (inactive) | GI50 (SK-OV-3): > 100 µM (inactive) | GI50 (HOP-62): > 100 µM (inactive) | GI50 (SW-620): > 100 µM (inactive) | GI50 (SK-MEL-2): > 100 µM (inactive) | GI50 (K562): > 100 µM (inactive) | GI50 (EKVX): > 100 µM (inactive) | GI50 (M14): > 100 µM (inactive) | GI50 (KM12): > 100 µM (inactive) | GI50 (NCI-H23): > 100 µM (inactive) | GI50 (SF-268): > 100 µM (inactive) | GI50 (HL-60): > 100 µM (inactive) | GI50 (NCI-H522): > 100 µM (inactive) | GI50 (MOLT-4): > 100 µM (inactive) | GI50 (RXF 393): > 100 µM (inactive) | GI50 (RXF 631): > 100 µM (inactive) | GI50 (SK-MEL-5): > 100 µM (inactive) | GI50 (HCC 2998): > 100 µM (inactive) | GI50 (A549): > 100 µM (inactive) | GI50 (XF498): > 100 µM (inactive) | GI50 (SF-539): > 100 µM (inactive) | GI50 (OVCAR-5): > 100 µM (inactive) | GI50 (SNB-19): > 100 µM (inactive) | GI50 (ACHN): > 100 µM (inactive) | GI50 (TK-10): > 100 µM (inactive) | GI50 (DMS-114): > 100 µM (inactive) | GI50 (HT-29): > 100 µM (inactive) | GI50 (IGROV-1): > 100 µM (inactive) | GI50 (HOP-92): 69.5 µM (inactive) | GI50 (UACC-62): > 100 µM (inactive) | GI50 (OVCAR-3): > 100 µM (inactive) | GI50 (SNB-75): 91.6 µM (inactive)

O=C(O)C(SC(=S)c1ccc(C(=S)SC(C(=O)O)c2ccccc2)cc1)c1ccccc1 (stereo not drawn)
GI50 (SNB-78): > 100 µM (inactive) | GI50 (UO-31): 92.7 µM (inactive) | GI50 (Malme-3M): > 100 µM (inactive) | GI50 (CCRF-CEM): > 100 µM (inactive) | GI50 (UACC-257): > 100 µM (inactive) | GI50 (DMS-273): 47.2 µM (inactive) | GI50 (DLD-1): > 100 µM (inactive) | GI50 (SN12C): > 100 µM (inactive) | GI50 (OVCAR-8): > 100 µM (inactive) | GI50 (SK-MEL-28): 99.3 µM (inactive) | GI50 (LXFL 529): 50.8 µM (inactive) | GI50 (SF-295): > 100 µM (inactive) | GI50 (786-0): 40.9 µM (inactive) | GI50 (SR): > 100 µM (inactive) | GI50 (A498): 69.8 µM (inactive) | GI50 (RPMI-8226): 42.8 µM (inactive) | GI50 (NCI-H460): > 100 µM (inactive) | GI50 (U-251): > 100 µM (inactive) | GI50 (LOX IMVI): 50.6 µM (inactive) | GI50 (SK-OV-3): > 100 µM (inactive) | GI50 (HCT-15): 42.2 µM | GI50 (HOP-62): > 100 µM (inactive) | GI50 (NCI-H226): 55.5 µM (inactive) | GI50 (SW-620): > 100 µM (inactive) | GI50 (SK-MEL-2): > 100 µM (inactive) | GI50 (K562): 44.5 µM (inactive) | GI50 (M14): > 100 µM (inactive) | GI50 (KM12): > 100 µM (inactive) | GI50 (NCI-H23): > 100 µM (inactive) | GI50 (SF-268): 97.3 µM (inactive) | GI50 (HL-60): > 100 µM (inactive) | GI50 (MOLT-4): > 100 µM (inactive) | GI50 (RXF 393): > 100 µM (inactive) | GI50 (HCT-116): > 100 µM (inactive) | GI50 (RXF 631): > 100 µM (inactive) | GI50 (SK-MEL-5): > 100 µM (inactive) | GI50 (HCC 2998): > 100 µM (inactive) | GI50 (A549): > 100 µM (inactive) | GI50 (XF498): > 100 µM (inactive) | GI50 (SF-539): > 100 µM (inactive) | GI50 (OVCAR-5): > 100 µM (inactive) | GI50 (SNB-19): 46.6 µM (inactive) | GI50 (ACHN): > 100 µM (inactive) | GI50 (TK-10): > 100 µM (inactive) | GI50 (DMS-114): 35 µM (inactive) | GI50 (HT-29): 67.1 µM (inactive) | GI50 (IGROV-1): > 100 µM (inactive) | GI50 (HOP-92): > 100 µM (inactive) | GI50 (UACC-62): 47.3 µM (inactive) | GI50 (OVCAR-3): 56.5 µM (inactive) | GI50 (SNB-75): 35 µM (inactive)

From ChEMBL document CHEMBL1201862, “PubChem BioAssay data set” (2004)
